# Values quoted from earlier work, collected in patent US11840582B2, “Synthesis method of cyclosporine derivatives” (Peking University Shenzhen Graduate School, priority 2021, dated 2023).
# Non-standard residues stand in square brackets, D forms with d. Residues, ends and D or L forms follow the SMILES beside them. NMeThr(4R-Me,4-(CH2)6NHAc) = CN[C@H](C(=O)O)[C@H](O)[C@H](C)CCCCCCNC(C)=O; NMeL = CN[C@@H](CC(C)C)C(=O)O; NMeV = CN[C@H](C(=O)O)C(C)C; dNMeA = CN[C@H](C)C(=O)O; Abu = CC[C@H](N)C(=O)O
# System: cyclophilin proteins (CyP), including cyclophilin protein A, cyclophilin protein B, cyclophilin protein H and cyclophilin protein G
smiles,measurement,value
"CC[C@@H]1NC(=O)[C@H]([C@H](O)[C@H](C)CCCCCCNC(C)=O)N(C)C(=O)[C@H](C(C)C)N(C)C(=O)[C@H](CC(C)C)N(C)C(=O)[C@H](CC(C)C)N(C)C(=O)[C@@H](C)NC(=O)[C@H](C)NC(=O)[C@H](CC(C)C)N(C)C(=O)[C@H](C(C)C)NC(=O)[C@H](CC(C)C)N(C)C(=O)[C@@H](C)N(C)C1=O [CRV431] (cyclo(A[dA][NMeL][NMeL][NMeV][NMeThr(4R-Me,4-(CH2)6NHAc)][Abu][dNMeA][NMeL]V[NMeL]))",IC50,1 to 7 nM
same,potency relative to cyclosporine A inhibiting the activity of cyclophilin protein,≤ 13 times
